Data on 29 molecules can be found in patent US9056874B2, “Complement pathway modulators and uses thereof” (NOVARTIS AG, priority 2012, dated 2015).

The target in the assay is factor B (Homo sapiens, UniProt P00751). Nature of the assay: factor B inhibition assay of Biological Example 1. Type of assay: biochemical. Set-up: CVF-Bb complex prepared from purified cobra venom factor (1 μM), recombinant human complement factor B; made in house; host or cells: drosophila cells (factor B); E. coli (factor D used to form the complex). To be noted: assay of Biological Example 1 (Table 1).
factor B, sequence (P00751 260-764 limits assumed): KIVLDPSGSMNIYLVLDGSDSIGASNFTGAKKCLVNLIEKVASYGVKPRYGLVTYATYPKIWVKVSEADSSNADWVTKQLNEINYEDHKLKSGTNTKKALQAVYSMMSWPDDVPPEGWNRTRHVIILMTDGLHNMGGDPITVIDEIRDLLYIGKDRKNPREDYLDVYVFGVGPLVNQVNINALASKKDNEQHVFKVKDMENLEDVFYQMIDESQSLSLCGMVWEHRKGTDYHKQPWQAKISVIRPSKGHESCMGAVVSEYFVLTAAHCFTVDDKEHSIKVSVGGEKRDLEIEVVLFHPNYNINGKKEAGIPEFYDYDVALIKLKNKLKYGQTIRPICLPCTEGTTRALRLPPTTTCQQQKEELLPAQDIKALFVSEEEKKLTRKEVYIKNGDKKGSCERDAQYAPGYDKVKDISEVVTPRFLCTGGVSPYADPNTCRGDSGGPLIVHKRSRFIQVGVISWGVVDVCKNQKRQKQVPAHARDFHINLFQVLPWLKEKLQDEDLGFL
factor B, sequence (Q91132 23-649 partner limits assumed): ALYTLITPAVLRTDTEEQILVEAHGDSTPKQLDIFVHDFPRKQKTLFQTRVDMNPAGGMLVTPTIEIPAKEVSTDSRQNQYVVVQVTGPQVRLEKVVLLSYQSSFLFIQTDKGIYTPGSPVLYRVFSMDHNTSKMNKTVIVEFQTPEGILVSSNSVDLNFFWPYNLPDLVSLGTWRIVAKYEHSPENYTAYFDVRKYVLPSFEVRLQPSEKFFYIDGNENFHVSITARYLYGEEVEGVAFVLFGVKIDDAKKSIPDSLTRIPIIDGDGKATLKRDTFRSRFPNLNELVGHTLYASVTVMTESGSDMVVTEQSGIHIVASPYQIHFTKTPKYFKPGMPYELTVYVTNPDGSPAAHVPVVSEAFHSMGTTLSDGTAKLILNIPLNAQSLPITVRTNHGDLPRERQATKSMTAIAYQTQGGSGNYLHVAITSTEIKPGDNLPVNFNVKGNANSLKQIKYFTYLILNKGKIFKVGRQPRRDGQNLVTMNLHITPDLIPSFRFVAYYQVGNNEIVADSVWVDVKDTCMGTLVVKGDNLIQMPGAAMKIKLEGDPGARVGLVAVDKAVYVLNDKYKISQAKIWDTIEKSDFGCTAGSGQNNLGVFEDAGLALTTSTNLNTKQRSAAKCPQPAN
factor B, sequence (Q91132 733-984 partner limits assumed): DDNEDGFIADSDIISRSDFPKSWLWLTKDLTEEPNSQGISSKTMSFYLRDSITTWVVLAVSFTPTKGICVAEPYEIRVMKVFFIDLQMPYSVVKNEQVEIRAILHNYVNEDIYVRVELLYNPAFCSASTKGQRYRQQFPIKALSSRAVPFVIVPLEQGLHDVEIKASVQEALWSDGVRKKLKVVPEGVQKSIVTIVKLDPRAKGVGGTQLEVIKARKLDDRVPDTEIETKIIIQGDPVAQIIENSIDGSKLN
factor B, sequence (Q91132 1264-1642 partner limits assumed): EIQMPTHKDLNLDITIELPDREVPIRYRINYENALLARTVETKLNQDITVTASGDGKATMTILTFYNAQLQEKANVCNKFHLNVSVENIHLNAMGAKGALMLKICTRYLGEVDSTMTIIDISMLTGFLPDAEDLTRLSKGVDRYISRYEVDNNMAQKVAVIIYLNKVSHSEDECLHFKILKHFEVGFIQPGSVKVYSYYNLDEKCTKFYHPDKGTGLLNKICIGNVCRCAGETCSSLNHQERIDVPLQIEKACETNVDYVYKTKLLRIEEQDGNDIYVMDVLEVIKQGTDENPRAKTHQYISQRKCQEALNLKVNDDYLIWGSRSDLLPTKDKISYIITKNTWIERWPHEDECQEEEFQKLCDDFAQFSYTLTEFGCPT

For the molecule `Cc1cc(OC(C)C)c(C(C)(O)c2nc3cc(C#N)ccc3[nH]2)c2cc[nH]c12` (single isomer, unassigned; (+)) [26-E b) (+), (+)-2-(1-hydroxy-1-(5-isopropoxy-7-methyl-1H-indol-4-yl)ethyl)-1H-benzo[d]imidazole-5-carbonitrile], the IC50 is 170 nM. As to `CCC(O)(c1nc2cc(C#N)ccc2[nH]1)c1c(OC(C)C)cc(C)c2[nH]ccc12` (single isomer, unassigned; (+)) [26-F b) (+), (+)-2-(1-hydroxy-1-(5-isopropoxy-7-methyl-1H-indol-4-yl)propyl)-1H-benzo[d]imidazole-5-carbonitrile], the IC50 (IC50 (nM)) was 230 nM. Still for that read-out and setting: with `Cc1cc(OCC2CC2)c(C(C)(O)c2nc3cc(C#N)ccc3[nH]2)c2cc[nH]c12` (single isomer, unassigned; (+)) [26-G b) (+), (+)-2-(1-(5-(cyclopropylmethoxy)-7-methyl-1H-indol-4-yl)-1-hydroxyethyl)-1H-benzo[d]imidazole-5-carbonitrile] the figure was 4950 nM. As for `COc1cc(C)c2[nH]ccc2c1C(C)(OC)c1nc2cc(C#N)ccc2[nH]1` (single isomer, unassigned; (+)) [27-B b) (+), (+)-2-(1-methoxy-1-(5-methoxy-7-methyl-1H-indol-4-yl)ethyl)-1H-benzo[d]imidazole-5-carbonitrile], the IC50 (IC50 (nM)) came out at 60 nM. As to `[2H]C([2H])([2H])C(OC)(c1nc2cc(C#N)ccc2[nH]1)c1c(OC)cc(C)c2[nH]ccc12` (single isomer, unassigned; (+)) [27-E b) (+), (+)-2-((^2H3)methyl(methoxy)(5-methoxy-7-methyl-1H-indol-4-yl)methyl)-1H-benzo[d]imidazole-5-carbonitrile], the IC50 (IC50 (nM)) stood at 90 nM. Turning to `COc1cc(C)c2[nH]cc(Cl)c2c1C(O)c1nc2cc(C#N)ccc2[nH]1` (single isomer, unassigned; (+)) [28-C b) (+), (+)-2-((3-chloro-5-methoxy-7-methyl-1H-indol-4-yl)(hydroxy)methyl)-1H-benzo[d]imidazole-5-carbonitrile], where the note is “IC50 (nM)”, the IC50 came out at 53900 nM. Same read-out and setting: with `COc1cc(C)c2[nH]ccc2c1C(O)(c1nc2cc(C#N)ccc2[nH]1)C(F)(F)F` (single isomer, unassigned; (+)) [33-B b) (+), (+)-2-(2,2,2-trifluoro-1-hydroxy-1-(5-methoxy-7-methyl-1H-indol-4-yl)ethyl)-1H-benzo[d]imidazole-5-carbonitrile] the figure was 430 nM; with `COc1cc(C)c2[nH]ccc2c1C(OC)(c1nc2cc(C#N)ccc2[nH]1)C(F)(F)F` (single isomer, unassigned; (+)) [34-B b) (+), (+)-2-(2,2,2-trifluoro-1-methoxy-1-(5-methoxy-7-methyl-1H-indol-4-yl)ethyl)-1H-benzo[d]imidazole-5-carbonitrile], 50 nM; with `COc1cc(C)c2[nH]ccc2c1C(OCC(=O)O)(c1nc2cc(C#N)ccc2[nH]1)C(F)(F)F` (single isomer, unassigned; (+)) [35-C (+), (+)-2-(1-(5-cyano-1H-benzo[d]imidazol-2-yl)-2,2,2-trifluoro-1-(5-methoxy-7-methyl-1H-indol-4-yl)ethoxy)acetic acid], 4870 nM. For the molecule `CNC(c1nc2cc(C#N)ccc2[nH]1)(c1c(OC)cc(C)c2[nH]ccc12)C(F)(F)F` (single isomer, unassigned; (+)) [38-B b) (+), (+)-2-(2,2,2-trifluoro-1-(5-methoxy-7-methyl-1H-indol-4-yl)-1-(methylamino)ethyl)-1H-benzo[d]imidazole-5-carbonitrile], the IC50 (IC50 (nM)) was found to be 140 nM.

Turning to `COc1cc(C)c2[nH]ccc2c1C(C)(N)c1nc2cc(C#N)ccc2[nH]1` (single isomer, unassigned; (+)) [41-B b) (+), (+)-2-(1-amino-1-(5-methoxy-7-methyl-1H-indol-4-yl)ethyl)-1H-benzo[d]imidazole-5-carbonitrile], the IC50 (IC50 (nM)) came out at 190 nM. Still for that read-out and setting: the result for `CNC(C)(c1nc2cc(C#N)ccc2[nH]1)c1c(OC)cc(C)c2[nH]ccc12` (single isomer, unassigned; (+)) [42-D b) (+), (+)-2-(1-(5-methoxy-7-methyl-1H-indol-4-yl)-1-(methylamino)ethyl)-1H-benzo[d]imidazole-5-carbonitrile] reads 130 nM. Still for that read-out and setting: with `Cc1cc(C)c2[nH]ccc2c1C(O)c1nc2cc(C#N)ccc2[nH]1` (single isomer, unassigned; (+)) [64-C b) (+), (+)-2-((5,7-dimethyl-1H-indol-4-yl)(hydroxy)methyl)benzo[d]imidazole-5-carbonitrile] the figure was 340 nM; with `Cc1cc(CO)c(C(O)c2nc3cc(C#N)ccc3[nH]2)c2cc[nH]c12` (single isomer, unassigned; (+)) [65-D b) (+), (+)-2-(hydroxy(5-(hydroxymethyl)-7-methyl-1H-indol-4-yl)methyl)-1H-benzo[d]imidazole-5-carbonitrile], 6200 nM. Still for that read-out and setting: with `CCOCc1cc(C)c2[nH]ccc2c1C(O)c1nc2cc(C#N)ccc2[nH]1` (single isomer, unassigned; (+)) [66-D b) (+), (+)-2-((5-(ethoxymethyl)-7-methyl-1H-indol-4-yl)(hydroxy)methyl)-1H-benzo[d]imidazole-5-carbonitrile] the figure was 30400 nM. In the case of `CCc1cc(C)c2[nH]ccc2c1C(O)c1nc2cc(C#N)ccc2[nH]1` (single isomer, unassigned; (+)) [67-A b) (+), (+)-2-((5-ethyl-7-methyl-1H-indol-4-yl)(hydroxy)methyl)-1H-benzo[d]imidazole-5-carbonitrile], the IC50 (IC50 (nM)) turned out to be 1160 nM. `Cc1cc(CC(C)C)c(C(O)c2nc3cc(C#N)ccc3[nH]2)c2cc[nH]c12` (single isomer, unassigned; (+)) [67-C b) (+), (+)-2-(hydroxy(5-(isobutyl)-7-methyl-1H-indol-4-yl)methyl)-1H-benzo[d]imidazole-5-carbonitrile]: the IC50 (IC50 (nM)) was determined as 8770 nM. Still for that read-out and setting: with `Cc1cc(C(C)C)c(C(O)c2nc3cc(C#N)ccc3[nH]2)c2cc[nH]c12` (single isomer, unassigned; (+)) [67-D b) (+), (+)-2-(hydroxy(5-isopropyl-7-methyl-1H-indol-4-yl)methyl)-1H-benzo[d]imidazole-5-carbonitrile] the figure was 3220 nM. The same measure, in the same setting: with `Cc1cc(Cl)c(C(O)c2nc3cc(C#N)ccc3[nH]2)c2cc[nH]c12` (single isomer, unassigned; (+)) [67-E b) (+), (+)-2-((5-chloro-7-methyl-1H-indol-4-yl)(hydroxy)methyl)-1H-benzo[d]imidazole-5-carbonitrile] the figure was 2080 nM. `Cc1cc(C)c2[nH]ccc2c1C(O)c1nc2c(C)c(C#N)ccc2[nH]1` (single isomer, unassigned; (+)) [67-G b) (+), (+)-2-((5,7-dimethyl-1H-indol-4-yl)(hydroxy)methyl)-4-methyl-1H-benzo[d]imidazole-5-carbonitrile]: the IC50 (IC50 (nM)) amounted to 2980 nM. On to `CCc1cc(C)c2[nH]ccc2c1C(OC)c1nc2cc(C#N)ccc2[nH]1` (single isomer, unassigned; (+)) [70-D b) (+), (+)-2-((5-ethyl-7-methyl-1H-indol-4-yl)(methoxy)methyl)-1H-benzo[d]imidazole-5-carbonitrile], for which, under “IC50 (nM)”, the IC50 worked out at 950 nM.

Take `COC(c1nc2cc(C#N)ccc2[nH]1)c1c(CC(C)C)cc(C)c2[nH]ccc12` (single isomer, unassigned; (+)) [71 b) (+), (+)-2-((5-isobutyl-7-methyl-1H-indol-4-yl)(methoxy)methyl)-1H-benzo[d]imidazole-5-carbonitrile]: under “IC50 (nM)”, the IC50 stood at 4550 nM.

As to `Cc1cc(C)c2[nH]ccc2c1C(C)(O)c1nc2cc(C#N)ccc2[nH]1` (single isomer, unassigned; (+)) [76-B b) (+), (+)-2-(1-(5,7-Dimethyl-1H-indol-4-yl)-1-hydroxyethyl)-1H-benzo[d]imidazole-5-carbonitrile], the half-maximal inhibitory concentration (IC50) (IC50 (nM)) stood at 290 nM.

As for `CCc1cc(C)c2[nH]ccc2c1C(C)(O)c1nc2cc(C#N)ccc2[nH]1` (single isomer, unassigned; (+)) [77-C b) (+), (+)-2-(1-(5-ethyl-7-methyl-1H-indol-4-yl)-1-hydroxyethyl)-1H-benzo[d]imidazole-5-carbonitrile], the IC50 (IC50 (nM)) is 40 nM.

With `Cc1cc(C(C)C)c(C(C)(O)c2nc3cc(C#N)ccc3[nH]2)c2cc[nH]c12` (single isomer, unassigned; (+)) [79-B b) (+), (+)-2-(1-hydroxy-1-(5-isopropyl-7-methyl-1H-indol-4-yl)ethyl)-1H-benzo[d]imidazole-5-carbonitrile], the IC50 (IC50 (nM)) was 1070 nM. Same read-out and setting: the result for `Cc1cc(C2CC2)c(C(C)(O)c2nc3cc(C#N)ccc3[nH]2)c2cc[nH]c12` (single isomer, unassigned; (+)) [79-C b) (+), (+)-2-(1-(5-cyclopropyl-7-methyl-1H-indol-4-yl)-1-hydroxyethyl)-1H-benzo[d]imidazole-5-carbonitrile] reads 8 nM. The same measure, in the same setting: the result for `Cc1cc(CC(C)C)c(C(C)(O)c2nc3cc(C#N)ccc3[nH]2)c2cc[nH]c12` (single isomer, unassigned; (+)) [79-D b) (+), (+)-2-(1-hydroxy-1-(5-isobutyl-7-methyl-1H-indol-4-yl)ethyl)-1H-benzo[d]imidazole-5-carbonitrile] reads 2240 nM. On to `Cc1cc(Cl)c(C(C)(O)c2nc3cc(C#N)ccc3[nH]2)c2cc[nH]c12` (single isomer, unassigned; (+)) [79-E b) (+), (+)-2-(1-(5-chloro-7-methyl-1H-indol-4-yl)-1-hydroxyethyl)-1H-benzo[d]imidazole-5-carbonitrile], for which the IC50 (IC50 (nM)) amounted to 1120 nM.

On to `CCc1cc(C)c2[nH]ccc2c1C(O)(c1nc2cc(C#N)ccc2[nH]1)C(F)(F)F` (single isomer, unassigned; (+)) [80-C b) (+), (+)-2-(1-(5-ethyl-7-methyl-1H-indol-4-yl)-2,2,2-trifluoro-1-hydroxyethyl)-1H-benzo[d]imidazole-5-carbonitrile], for which the IC50 (IC50 (nM)) was determined as 380 nM.

By IC50 is commonly meant the midpoint of a concentration-inhibition curve.
